Patent US10183938B2, “Geminal substituted quinuclidine amide compounds as agonists of α-7 nicotonic acetylcholine receptors” (AXOVANT SCIENCES GMBH, priority 2014, dated 2019)
Where a name gives a salt, the structure may show the parent alone.

target: human α7 nAChRs transiently expressed in Xenopus laevis oocytes (Homo sapiens (Human), UniProt P36544); experiment: Oocyte electrophysiology screen (TEVC); type: cell-based; settings: 0.01 mM test compound, peak current relative to 0.2 mM ACh
Protocol: Oocyte Electrophysiology Screen (% ACh @ 10 μM Oocyte)
The Oocyte Electrophysiology Screen studies were performed under contract by HiQScreen Geneva, Switzerland. All experiments were carried out at human α7 nAChRs transiently expressed in Xenopus laevis oocytes using the method of cDNA expression. Currents evoked by acetylcholine or other agonist ligands were recorded using the standard two-electrode voltage-clamp configuration (TEVC). X. laevis oocytes were prepared and injected using standard procedures. Briefly, ovaries were harvested from X. laevis females that were deeply anesthetized and pithed following the animal rights rule from the Geneva canton. A small piece of ovary was isolated for immediate preparation while the remaining part was placed at 4° C. in a sterile Barth solution containing in mM: NaCl 88, KCl 1, NaHCO3 2.4, HEPES 10, MgSO4.7H2O 0.82, Ca(NO3)2.4H2O 0.33, CaCl2.6H2O 0.41, at pH 7.4, and supplemented with 20 μg/mL of kanamycin, 100 unit/mL penicillin and 100 μg/mL streptomycin. […] Cells were held at −80 mV. Data were filtered at 10 Hz, captured at 100 Hz and analyzed using proprietary data acquisition and analysis software running under Matlab (Mathworks Inc.).
Experimental Protocol and Analysis
After establishing a baseline transmembrane current, acetylcholine (ACh) was applied for 5 seconds at a concentration of 0.2 mM to establish a control ACh-evoked current response. Following a wash period of 90 s in OR2 medium (free of ACh), cells were then exposed for 30 s to the test compound applied at 0.01 mM. The same reference ACh test pulse was immediately given at the end of the compound exposure and again after 90 s of recovery in OR2 Medium (free of ACh or test compound). All data were determined in triplicate. The response evoked by the test compound was expressed as a percentage of that evoked by ACh: Response (% ACh)=100×(Itest/IACh) where Itest is the peak inward current measured during exposure to 0.01 mM of test compound and IACh is the peak inward current measured in the presence of ACh.

human α7 nAChRs transiently expressed in Xenopus laevis oocytes, sequence (P36544 23-502 limits assumed): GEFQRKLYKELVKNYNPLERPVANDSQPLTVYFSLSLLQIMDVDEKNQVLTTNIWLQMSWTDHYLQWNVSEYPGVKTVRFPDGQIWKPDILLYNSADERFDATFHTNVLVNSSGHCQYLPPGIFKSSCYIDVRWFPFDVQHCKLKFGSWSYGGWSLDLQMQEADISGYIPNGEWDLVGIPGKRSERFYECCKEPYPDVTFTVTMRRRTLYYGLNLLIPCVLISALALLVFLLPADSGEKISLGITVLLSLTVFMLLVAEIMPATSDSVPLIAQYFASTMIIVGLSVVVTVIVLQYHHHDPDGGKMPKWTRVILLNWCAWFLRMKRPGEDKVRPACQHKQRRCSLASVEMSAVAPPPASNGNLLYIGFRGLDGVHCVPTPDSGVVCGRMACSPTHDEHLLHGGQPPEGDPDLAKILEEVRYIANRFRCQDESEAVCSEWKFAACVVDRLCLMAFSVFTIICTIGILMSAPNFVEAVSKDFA

SMILES	% ACh @ 10 μM Oocyte
O=C(NC1C2CCN(CC2)C12CC2)c1cc2ccc(C(F)(F)F)cc2s1 (single isomer, unassigned; enantiomer1) [63a, N-(1′-azaspiro[cyclopropane-1,2′-bicyclo[2.2.2]octan]-3′-yl)-6-(trifluoromethyl)benzo[b]thiophene-2-carboxamide-enantiomer1]	3 % ACh
O=C(NC1C2CCN(CC2)C12CC2)c1cc2cc(Cl)c(Cl)cc2s1 (single isomer, unassigned; enantiomer1) [67a, 5,6-dichloro-N-(1′-azaspiro[cyclopropane-1,2′-bicyclo[2.2.2]octan]-3′-yl)benzo[b]thiophene-2-carboxamide-enantiomer1 hydrochloride]	1 % ACh
O=C(NC1C2CCN(CC2)C12CC2)c1cc2cccc(Cl)c2s1 (single isomer, unassigned; enantiomer2) [56b, 7-chloro-N-(1′-azaspiro[cyclopropane-1,2′-bicyclo[2.2.2]octan]-3′-yl)benzo[b]thiophene-2-carboxamide-enantiomer2]	0 % ACh
O=C(NC1C2CCN(CC2)C12CC2)c1ccc2ccsc2c1 (single isomer, unassigned; enantiomer2) [58b, N-(1′-azaspiro[cyclopropane-1,2′-bicyclo[2.2.2]octan]-3′-yl)benzo[b]thiophene-6-carboxamide-enantiomer2]	5 % ACh
O=C(NC1C2CCN(CC2)C12CC2)c1ccc2occc2c1 (single isomer, unassigned; enantiomer2) [59b, N-(1′-azaspiro[cyclopropane-1,2′-bicyclo[2.2.2]octan]-3′-yl)benzofuran-5-carboxamide-enantiomer2]	27 % ACh
O=C(NC1C2CCN(CC2)C12CC2)c1cc2cccc(C(F)(F)F)c2s1 (single isomer, unassigned; enantiomer2) [60b, N-(1′-azaspiro[cyclopropane-1,2′-bicyclo[2.2.2]octan]-3′-yl)-7-(trifluoromethyl)benzo[b]thiophene-2-carboxamide-enantiomer2]	1 % ACh
O=C(NC1C2CCN(CC2)C12CC2)c1cc2ccc(F)cc2s1 (single isomer, unassigned; enantiomer2) [61b, 6-fluoro-N-(1′-azaspiro[cyclopropane-1,2′-bicyclo[2.2.2]octan]-3′-yl)benzo[b]thiophene-2-carboxamide-enantiomer2]	1 % ACh
O=C(NC1C2CCN(CC2)C12CC2)c1cc2ccc(C(F)(F)F)cc2s1 (single isomer, unassigned; enantiomer2) [63b, N-(1′-azaspiro[cyclopropane-1,2′-bicyclo[2.2.2]octan]-3′-yl)-6-(trifluoromethyl)benzo[b]thiophene-2-carboxamide-enantiomer2]	3 % ACh
O=C(NC1C2CCN(CC2)C12CC2)c1cc2cc(F)ccc2s1 (single isomer, unassigned; enantiomer2) [64b, 5-fluoro-N-(1′-azaspiro[cyclopropane-1,2′-bicyclo[2.2.2]octan]-3′-yl)benzo[b]thiophene-2-carboxamide-enantiomer2]	1 % ACh

same assay, conditions: 0.01 mM test compound, peak current relative to 0.2 mM ACh; hydrochloride

SMILES	% ACh @ 10 μM Oocyte
CC1(C)C(NC(=O)c2cc3ccccc3s2)C2CCN1CC2 (single isomer, unassigned; enantiomer1) [1a, N-(2,2-dimethylquinuclidin-3-yl)benzo[b]thiophene-2-carboxamide-enantiomer1 hydrochloride]	1470 % ACh
O=C(NC1C2CCN(CC2)C12CC2)c1cc2ccccc2s1 (single isomer, unassigned; enantiomer1) [54a, N-(1′-azaspiro[cyclopropane-1,2′-bicyclo[2.2.2]octan]-3′-yl)benzo[b]thiophene-2-carboxamide-enantiomer1 hydrochloride]	4.5 % ACh
O=C(NC1C2CCN(CC2)C12CC2)c1cc2cccc(F)c2s1 (single isomer, unassigned; enantiomer1) [57a, 7-fluoro-N-(1′-azaspiro[cyclopropane-1,2′-bicyclo[2.2.2]octan]-3′-yl)benzo[b]thiophene-2-carboxamide-enantiomer1 hydrochloride]	386 % ACh
Nc1ccc2cc(C(=O)NC3C4CCN(CC4)C34CC4)sc2c1 (single isomer, unassigned; enantiomer1) [62a, 6-amino-N-(1′-azaspiro[cyclopropane-1,2′-bicyclo[2.2.2]octan]-3′-yl)benzo[b]thiophene-2-carboxamide-enantiomer1 hydrochloride]	35 % ACh
O=C(NC1C2CCN(CC2)C12CC2)c1cc2cc(Cl)ccc2s1 (single isomer, unassigned; enantiomer1) [66a, 5-chloro-N-(1′-azaspiro[cyclopropane-1,2′-bicyclo[2.2.2]octan]-3′-yl)benzo[b]thiophene-2-carboxamide-enantiomer1 hydrochloride]	2 % ACh
O=C(NC1C2CCN(CC2)C12CC2)c1cc2cc(Cl)ccc2s1 (single isomer, unassigned; enantiomer1) [66b, 5-chloro-N-(1′-azaspiro[cyclopropane-1,2′-bicyclo[2.2.2]octan]-3′-yl)benzo[b]thiophene-2-carboxamide-enantiomer1 hydrochloride]	29 % ACh
Cc1ccc2sc(C(=O)NC3C4CCN(CC4)C34CC4)cc2c1 (single isomer, unassigned; enantiomer1) [69a, 5-methyl-N-(1′-azaspiro[cyclopropane-1,2′-bicyclo[2.2.2]octan]-3′-yl)benzo[b]thiophene-2-carboxamide-enantiomer1 hydrochloride]	162 % ACh
O=C(NC1C2CCN(CC2)C12CC2)c1cc2cc(C(F)(F)F)ccc2s1 (single isomer, unassigned; enantiomer1) [70a, N-(1′-azaspiro[cyclopropane-1,2′-bicyclo[2.2.2]octan]-3′-yl)-5-(trifluoromethyl)benzo[b]thiophene-2-carboxamide-enantiomer1 hydrochloride]	2 % ACh
O=C(NC1C2CCN(CC2)C12CC2)c1cc2ccc(C3CC3)cc2s1 (single isomer, unassigned; enantiomer1) [71a, 6-cyclopropyl-N-(1′-azaspiro[cyclopropane-1,2′-bicyclo[2.2.2]octan]-3′-yl)benzo[b]thiophene-2-carboxamide-enantiomer1 hydrochloride]	739 % ACh
O=C(NC1C2CCN(CC2)C12CC2)c1cc2cc(C3CC3)ccc2s1 (single isomer, unassigned; enantiomer1) [72a, 5-cyclopropyl-N-(1′-azaspiro[cyclopropane-1,2′-bicyclo[2.2.2]octan]-3′-yl)benzo[b]thiophene-2-carboxamide-enantiomer1 hydrochloride]	188 % ACh
COc1ccc2cc(C(=O)NC3C4CCN(CC4)C34CC4)sc2c1 (single isomer, unassigned; enantiomer1) [73a, 6-methoxy-N-(1′-azaspiro[cyclopropane-1,2′-bicyclo[2.2.2]octan]-3′-yl)benzo[b]thiophene-2-carboxamide-enantiomer1 hydrochloride]	1036 % ACh
COc1ccc2sc(C(=O)NC3C4CCN(CC4)C34CC4)cc2c1 (single isomer, unassigned; enantiomer1) [74a, 5-methoxy-N-(1′-azaspiro[cyclopropane-1,2′-bicyclo[2.2.2]octan]-3′-yl)benzo[b]thiophene-2-carboxamide-enantiomer1 hydrochloride]	32 % ACh
CC1(C)C(NC(=O)c2cc3ccccc3s2)C2CCN1CC2 (single isomer, unassigned; enantiomer2) [1b, N-(2,2-dimethylquinuclidin-3-yl)benzo[b]thiophene-2-carboxamide-enantiomer2 hydrochloride]	2 % ACh
O=C(NC1C2CCN(CC2)C12CC2)c1cc2ccccc2s1 (single isomer, unassigned; enantiomer2) [54b, N-(1′-azaspiro[cyclopropane-1,2′-bicyclo[2.2.2]octan]-3′-yl)benzo[b]thiophene-2-carboxamide-enantiomer2 hydrochloride]	1319 % ACh
O=C(NC1C2CCN(CC2)C12CC2)c1cc2cccc(F)c2s1 (single isomer, unassigned; enantiomer2) [57b, 7-fluoro-N-(1′-azaspiro[cyclopropane-1,2′-bicyclo[2.2.2]octan]-3′-yl)benzo[b]thiophene-2-carboxamide-enantiomer2 hydrochloride]	4 % ACh
Nc1ccc2cc(C(=O)NC3C4CCN(CC4)C34CC4)sc2c1 (single isomer, unassigned; enantiomer2) [62b, 6-amino-N-(1′-azaspiro[cyclopropane-1,2′-bicyclo[2.2.2]octan]-3′-yl)benzo[b]thiophene-2-carboxamide-enantiomer2 hydrochloride]	995 % ACh
